Reference: article PMC7587333, “Synthesis, Molecular Docking, and In Vitro Boron Neutron Capture Therapy Assay of Carboranyl Sinomenine” (Molecules, 2020)
Where two headings read alike, the source gives them in different places.

Experiments:
[1] = Solubility in organic solvents; format: physicochemical; conditions: organic solvents such as DMF, THF and DMSO
Source text: Carboranyl sinomenine product was synthesized by a straightforward method as shown in Scheme 1. In this process, sinomenine anion was generated in situ from the reaction of sinomenine (1) with the excess quantity of potassium carbonate in N,N-dimethyl formide (DMF) solvent at room temperature under argon atmosphere. The resulting sinomenine anion reacted with 4-(methyl-ortho-carboranyl)-n-butyl iodide (2), prepared according to the literature method, to produce the carboranyl sinomenine (3) as a colorless solid in 54.3% yield after recrystallization from tetrahydrofuran (THF) solvent.

rat FLS cells [2] = experiment: Uptake of boron by rat fibroblast-like synoviocytes cells (ICP-AES); format: cell-based; conditions: 24 h culture with boron agent
Source text: (§1) The rat C6 glioma cells and fibroblast-like synoviocytes (FLS) cells were used to conduct the boron uptake of 3. The boron uptakes of clinically used L-BPA and BSH were also listed for comparation. The results reveal that 3 was able to permeate both C6 glioma cells and FLS cells. […] The higher membrane permeability provides enhanced boron concentration in the cell lines. […] Nevertheless, the detailed mechanism of 3 crossing cell membrane warrants further investigation.
(§2) According to literature, 3.7 × 10^8 rat FLS cells or 2.6 × 10^7 rat C6 glioma cells were seeded and cultured at […] (37 °C, 5% CO2) for 24 hrs. This culture fluid was removed therefrom by suction, culture fluids containing 1.5 mM of boron agent 3 with the boron concentrations of 3.0 mM, 1.5 mM, 18.0 mM, and 1.5 mM, respectively, were added and continued culturing for 24 h under the same conditions. These culture fluids were removed by suction and the cells were washed three times with PBS and treated with trypsin to recover the cells. The number of cells recovered was counted, and HNO3 (2N, 1.5 mL) was added and the resulting mixture was heated at 80 °C for 12 h. After filtering using a membrane filter, the boron concentration was determined by ICP-AES (Singapore).

rat C6 glioma cells [3] = experiment: Uptake of boron by rat C6 glioma cells (ICP-AES); format: cell-based; conditions: 24 h culture with boron agent
Source text: as §1, §2

[4] = system: rat fibroblast-like synoviocytes (FLS) cells; experiment: In vitro survival study (BNCS, thermal neutron irradiation, colony formation), FLS cells; format: cell-based; conditions: same operating conditions as L-BPA
Source text: (§3) The preliminary in vitro killing effects of compound 3 were examined by using rat C6 gliosarcoma tumor cells and fibroblast-like synoviocytes (FLS) cells, respectively. The in vitro survival study was completed with the thermal neutron fluence ranging from 0 to 4.2 × 10^12 n/cm^2. The γ-ray dose presented in the experiment was monitored by thermoluminescent dosimeters (TLDs) attached to the tubes and ranged from 0 to 5 Sv. […] A low surviving fraction of around 0.01 was obtained by compound 3 after irradiation for 50 min.
(§4) The in vitro assessments were carried out according to methods reported in the literature. […] The inability of cells to adhere to Teflon allows precise quantitative manipulation of cells without trypsinization. […] The thermal neutron fluence was determined by averaging the activity of two gold films symmetrically attached to the Teflon tube surface along the thermal neutron axis. […] The neutron absorbed dose (Gy) was calculated using the flux-to-dose conversion factor [39, 40]. […] The γ-ray dose was monitored by thermoluminescent dosimeters (TLDs) (Kyoto, Japan) attached to the tubes, and it ranged from 0 to 5 Sv. […] The colonies were fixed and stained with a 10% formaldehyde/1% toluidine blue solution and then counted microscopically.
(§5) The in vitro BNCS was carried out in triplicate. […] The significance of the differences in survival rates was assessed by Student’s t-test. […]

rat C6 gliosarcoma cells = experiment: In vitro survival study (BNCT, thermal neutron irradiation, colony formation), C6 cells; format: cell-based; conditions: C6 gliosarcoma tumor cells
Source text: as §3, §4, §5

rat FLS cells [5] = experiment: Cytotoxicity study, standard MTT assay; format: cell-based; conditions: 3 days of continuous exposure, no irradiation, read-out: IC50 (growth inhibition, cytotoxicity)
Description: The IC50 (moles/liter, M), the concentration that inhibited the growth of rat FLS cells by 50% after 3 days of continuous exposure, was determined using the standard MTT assay. Suspensions of 4.9 × 10^5 of rat fibroblast-like synoviocytes cells /200 μL MEM containing 20% FCS were incubated for 3 days using 96-well culture plates with various concentrations of the samples in dimethyl sulfoxide (DMSO). The damaged cells were detected at 490 nm optical absorbance by Aqueous One Solution Cell Proliferation Assay.
Figure S-4. 1H NMR of 3 in DMSO-d6.
2. Cytotoxicity study. For IC50 analysis, the standard MTT method was used to analyze IC50 of compound 3. The IC50 determinations were performed in the presence of serial dilutions of inhibitor (1000 μM to 3.906 µM, 1% DMSO, final) in complete reaction buffer and incubated for […].
Figure S-5. IC50 dose responsive curve of 3 for rat FLS cells. […]

malignant cells = conditions: background statement, no reference given; cited from earlier work
rat C6 glioma cells [6] = system: rat C6 glioma cells; parameters: method as in PMID 31260876; conditions: cited from earlier work
rat FLS cells [7] = system: rat FLS cells; parameters: method as in PMID 15980490; conditions: cited from earlier work

Row | Compound | Solubility [1] | Boron amounts delivered to the cells (rat FLS cells [2]) | Boron amounts delivered to the cells (rat C6 glioma cells [3]) | Killing effects enhanced compared with L-BPA [4] | Surviving fraction (rat C6 gliosarcoma cells; after thermal neutron irradiation for 50 min) | Killing effect improved compared with L-BPA (rat C6 gliosarcoma cells; thermal neutron irradiation, same operating conditions as L-BPA) | IC50 (rat FLS cells [5]) | Concentration in malignant cells relative to blood and other healthy cells (malignant cells) | Boron amounts delivered to the cells (rat C6 glioma cells [6]) | Boron amounts delivered to the cells (rat FLS cells [7])
1 | methylcarboranyl-n-butyl sinomenine [Compound 3] | soluble in various organic solvents | 3.04 μg/10^7 cells | 4.25 μg/10^7 cells | approximately three times | around 0.01 | approximately nine times | 310.4 ± 0.3 µM |  |  | 
2 | N[C@@H](Cc1ccc(B(O)O)cc1)C(=O)O [L-BPA, 4-borono-L-phenylalanine] |  |  |  |  |  |  |  | 2–4 times | 0.67 [21] μg/10^7 cells | 0.74 [31] μg/10^7 cells
3 | sodium borocaptate [BSH] |  |  |  |  |  |  |  |  | 2.14 [21] μg/10^7 cells | 1.82 [31] μg/10^7 cells
